Columns and labels:
Assay in all cases: relative viability (nuclei count vs DMSO), 5 days (fraction); higher = more cells survive
ChaGo-K-1 = system: ChaGo-K-1
How it was run: (§1)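 Relative viability divides the nuclei count in treated wells by that in vehicle wells. Lung cancer cell lines were seeded in 1536-well plates, dosed by pin tool the next day, and fixed and stained after 5 days in one step with final 0.05% Triton X-100, 1% formaldehyde and 1 ug/ml Hoechst. Dosing was a single drug or a fixed anchor-drug dose plus five library-drug doses (not always all listed) in √10 steps, and values are medians of duplicate plates imaged at 4×.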

EMC-BAC-2 = system: EMC-BAC-2
How it was run: as §1

EPLC-272H = system: EPLC-272H
How it was run: as §1

H3255 = system: H3255
How it was run: as §1

HCC-44 = system: HCC-44
How it was run: as §1

HCC-827 = system: HCC-827
How it was run: as §1

LCLC-103H = system: LCLC-103H
How it was run: as §1

LCLC-97TM1 = system: LCLC-97TM1
How it was run: as §1

NCI-H1355 = system: NCI-H1355
How it was run: as §1

NCI-H1395 = system: NCI-H1395
How it was run: as §1

NCI-H1563 = system: NCI-H1563
How it was run: as §1

NCI-H1651 = system: NCI-H1651
How it was run: as §1

NCI-H1793 = system: NCI-H1793
How it was run: as §1

NCI-H1944 = system: NCI-H1944
How it was run: as §1

NCI-H2023 = system: NCI-H2023
How it was run: as §1

NCI-H2085 = system: NCI-H2085
How it was run: as §1

NCI-H2087 = system: NCI-H2087
How it was run: as §1

NCI-H2405 = system: NCI-H2405
How it was run: as §1

NCI-H322M = system: NCI-H322M
How it was run: as §1

NCI-H520 = system: NCI-H520
How it was run: as §1

NCI-H650 = system: NCI-H650
How it was run: as §1

SK-MES-1 = system: SK-MES-1
How it was run: as §1

UMC-11 = system: UMC-11
How it was run: as §1

`NC(=O)Nc1cc(-c2cccc(F)c2)sc1C(=O)N[C@H]1CCCNC1` [AZD7762] + Nc1nc2[nH]cc(CCc3ccc(C(=O)N[C@@H](CCC(=O)O)C(=O)O)cc3)c2c(=O)[nH]1 [Pemetrexed] (partner 0.2 µM) gave a relative viability (ChaGo-K-1; first compound 0.01 µM) of 0.26, a relative viability (ChaGo-K-1; first compound 0.03162 µM) of 0.267 and a relative viability (ChaGo-K-1; first compound 0.1 µM) of 0.259. It also gave a relative viability (ChaGo-K-1; first compound 0.3162 µM) of 0.243, a relative viability (ChaGo-K-1; first compound 1 µM) of 0.256 and a relative viability (EMC-BAC-2; first compound 0.01 µM) of 0.457. For the same compound, the relative viability (EMC-BAC-2; first compound 0.03162 µM) was 0.397, the relative viability (EMC-BAC-2; first compound 0.1 µM) was 0.405 and the relative viability (EMC-BAC-2; first compound 0.3162 µM) was 0.35. It also gave a relative viability (EMC-BAC-2; first compound 1 µM) of 0.387, a relative viability (EPLC-272H; first compound 0.01 µM) of 0.321 and a relative viability (EPLC-272H; first compound 0.03162 µM) of 0.214. It also gave a relative viability (EPLC-272H; first compound 0.1 µM) of 0.174, a relative viability (EPLC-272H; first compound 0.3162 µM) of 0.12 and a relative viability (EPLC-272H; first compound 1 µM) of 0.0715. The relative viability (H3255; first compound 0.01 µM) was 0.549, the relative viability (H3255; first compound 0.03162 µM) was 0.61 and the relative viability (H3255; first compound 0.1 µM) was 0.573. For the same compound, the relative viability (H3255; first compound 0.3162 µM) was 0.531, the relative viability (H3255; first compound 1 µM) was 0.477 and the relative viability (HCC-44; first compound 0.01 µM) was 0.608. It also gave a relative viability (HCC-44; first compound 0.03162 µM) of 0.548, a relative viability (HCC-44; first compound 0.1 µM) of 0.534 and a relative viability (HCC-44; first compound 0.3162 µM) of 0.451. The relative viability (HCC-44; first compound 1 µM) was 0.358, the relative viability (HCC-827; first compound 0.01 µM) was 0.301 and the relative viability (HCC-827; first compound 0.03162 µM) was 0.257. For the same compound, the relative viability (HCC-827; first compound 0.1 µM) was 0.211, the relative viability (HCC-827; first compound 0.3162 µM) was 0.192 and the relative viability (HCC-827; first compound 1 µM) was 0.148. For the same compound, the relative viability (LCLC-103H; first compound 0.01 µM) was 0.464, the relative viability (LCLC-103H; first compound 0.03162 µM) was 0.498 and the relative viability (LCLC-103H; first compound 0.1 µM) was 0.45. It also gave a relative viability (LCLC-103H; first compound 0.3162 µM) of 0.452, a relative viability (LCLC-103H; first compound 1 µM) of 0.394 and a relative viability (LCLC-97TM1; first compound 0.01 µM) of 0.187. The relative viability (LCLC-97TM1; first compound 0.03162 µM) was 0.165, the relative viability (LCLC-97TM1; first compound 0.1 µM) was 0.17 and the relative viability (LCLC-97TM1; first compound 0.3162 µM) was 0.139. It also gave a relative viability (LCLC-97TM1; first compound 1 µM) of 0.146, a relative viability (NCI-H1355; first compound 0.01 µM) of 1.07 and a relative viability (NCI-H1355; first compound 0.03162 µM) of 1.03. For the same compound, the relative viability (NCI-H1355; first compound 0.1 µM) was 1.08, the relative viability (NCI-H1355; first compound 0.3162 µM) was 0.708 and the relative viability (NCI-H1355; first compound 1 µM) was 0.709. It also gave a relative viability (NCI-H1395; first compound 0.01 µM) of 0.847, a relative viability (NCI-H1395; first compound 0.03162 µM) of 0.768 and a relative viability (NCI-H1395; first compound 0.1 µM) of 0.641. The relative viability (NCI-H1395; first compound 0.3162 µM) was 0.401, the relative viability (NCI-H1395; first compound 1 µM) was 0.306 and the relative viability (NCI-H1563; first compound 0.01 µM) was 0.853. For the same compound, the relative viability (NCI-H1563; first compound 0.03162 µM) was 0.997, the relative viability (NCI-H1563; first compound 0.1 µM) was 0.84 and the relative viability (NCI-H1563; first compound 0.3162 µM) was 0.693. It also gave a relative viability (NCI-H1563; first compound 1 µM) of 0.765, a relative viability (NCI-H1651; first compound 0.01 µM) of 0.624 and a relative viability (NCI-H1651; first compound 0.03162 µM) of 0.688. For the same compound, the relative viability (NCI-H1651; first compound 0.1 µM) was 0.558, the relative viability (NCI-H1651; first compound 0.3162 µM) was 0.385 and the relative viability (NCI-H1651; first compound 1 µM) was 0.259. For the same compound, the relative viability (NCI-H1793; first compound 0.01 µM) was 0.983, the relative viability (NCI-H1793; first compound 0.03162 µM) was 0.956 and the relative viability (NCI-H1793; first compound 0.1 µM) was 0.954. The relative viability (NCI-H1793; first compound 0.3162 µM) was 0.811, the relative viability (NCI-H1793; first compound 1 µM) was 0.562 and the relative viability (NCI-H1944; first compound 0.01 µM) was 0.694. It also gave a relative viability (NCI-H1944; first compound 0.03162 µM) of 0.601, a relative viability (NCI-H1944; first compound 0.1 µM) of 0.54 and a relative viability (NCI-H1944; first compound 0.3162 µM) of 0.28. For the same compound, the relative viability (NCI-H1944; first compound 1 µM) was 0.188, the relative viability (NCI-H2023; first compound 0.01 µM) was 0.211 and the relative viability (NCI-H2023; first compound 0.03162 µM) was 0.156. The relative viability (NCI-H2023; first compound 0.1 µM) was 0.112, the relative viability (NCI-H2023; first compound 0.3162 µM) was 0.124 and the relative viability (NCI-H2023; first compound 1 µM) was 0.0879. It also gave a relative viability (NCI-H2085; first compound 0.01 µM) of 0.932, a relative viability (NCI-H2085; first compound 0.03162 µM) of 0.918 and a relative viability (NCI-H2085; first compound 0.1 µM) of 1. For the same compound, the relative viability (NCI-H2085; first compound 0.3162 µM) was 0.795, the relative viability (NCI-H2085; first compound 1 µM) was 0.673 and the relative viability (NCI-H2087; first compound 0.01 µM) was 0.718. For the same compound, the relative viability (NCI-H2087; first compound 0.03162 µM) was 0.654, the relative viability (NCI-H2087; first compound 0.1 µM) was 0.714 and the relative viability (NCI-H2087; first compound 0.3162 µM) was 0.66. The relative viability (NCI-H2087; first compound 1 µM) was 0.692, the relative viability (NCI-H2405; first compound 0.01 µM) was 0.998 and the relative viability (NCI-H2405; first compound 0.03162 µM) was 1.25. For the same compound, the relative viability (NCI-H2405; first compound 0.1 µM) was 0.927, the relative viability (NCI-H2405; first compound 0.3162 µM) was 1 and the relative viability (NCI-H2405; first compound 1 µM) was 0.466. It also gave a relative viability (NCI-H322M; first compound 0.01 µM) of 0.595, a relative viability (NCI-H322M; first compound 0.03162 µM) of 0.617 and a relative viability (NCI-H322M; first compound 0.1 µM) of 0.571. The relative viability (NCI-H322M; first compound 0.3162 µM) was 0.542, the relative viability (NCI-H322M; first compound 1 µM) was 0.379 and the relative viability (NCI-H520; first compound 0.01 µM) was 0.761. The relative viability (NCI-H520; first compound 0.03162 µM) was 0.458, the relative viability (NCI-H520; first compound 0.1 µM) was 0.421 and the relative viability (NCI-H520; first compound 0.3162 µM) was 0.175. It also gave a relative viability (NCI-H520; first compound 1 µM) of 0.17, a relative viability (NCI-H650; first compound 0.01 µM) of 1.01 and a relative viability (NCI-H650; first compound 0.03162 µM) of 0.891. The relative viability (NCI-H650; first compound 0.1 µM) was 0.968, the relative viability (NCI-H650; first compound 0.3162 µM) was 0.821 and the relative viability (NCI-H650; first compound 1 µM) was 0.644. The relative viability (SK-MES-1; first compound 0.01 µM) was 1.01, the relative viability (SK-MES-1; first compound 0.03162 µM) was 0.914 and the relative viability (SK-MES-1; first compound 0.1 µM) was 0.86. For the same compound, the relative viability (SK-MES-1; first compound 0.3162 µM) was 0.433, the relative viability (SK-MES-1; first compound 1 µM) was 0.237 and the relative viability (UMC-11; first compound 0.01 µM) was 0.833. For the same compound, the relative viability (UMC-11; first compound 0.03162 µM) was 0.797, the relative viability (UMC-11; first compound 0.1 µM) was 0.782 and the relative viability (UMC-11; first compound 0.3162 µM) was 0.495. The relative viability (UMC-11; first compound 1 µM) was 0.369.

— the supplement of paper PMC10307832
